Results: ChEMBL document CHEMBL1201862, “PubChem BioAssay data set” (2004)
Active and inactive are the calls of the source.

Tests used:
[1] = molecular target: T1, Voltage-gated N-type calcium channel alpha-1B subunit/Amyloid beta A4 precursor protein-binding family A member 1 (Homo sapiens, UniProt Q00975+Q02410); format: protein assay
[2] = molecular target: T2, Dual specificity protein phosphatase 6 (Rattus norvegicus, UniProt Q64346); test: MKP-3 phosphatase inhibitors, primary screen, biochemical, rat enzyme, in vitro (AID 425)
T2 sequence (Q64346 whole entry): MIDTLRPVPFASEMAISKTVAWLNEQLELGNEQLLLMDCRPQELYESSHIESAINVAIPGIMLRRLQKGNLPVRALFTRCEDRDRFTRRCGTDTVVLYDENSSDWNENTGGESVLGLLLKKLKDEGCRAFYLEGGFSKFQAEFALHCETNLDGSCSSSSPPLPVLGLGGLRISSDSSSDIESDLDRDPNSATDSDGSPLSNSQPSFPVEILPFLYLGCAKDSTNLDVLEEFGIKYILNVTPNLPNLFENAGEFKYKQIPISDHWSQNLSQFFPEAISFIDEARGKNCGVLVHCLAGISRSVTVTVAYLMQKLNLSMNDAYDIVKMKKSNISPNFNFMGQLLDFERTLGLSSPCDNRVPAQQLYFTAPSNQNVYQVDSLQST

[3] = molecular target: T1, Voltage-gated N-type calcium channel alpha-1B subunit/Amyloid beta A4 precursor protein-binding family A member 1; format: protein assay; remark: listed apart in the source
[4] = molecular target: T3, Dual specificity protein phosphatase 3 (Homo sapiens, UniProt P51452); test: VHR1 phosphatase inhibitors, primary screen, biochemical, absorbance, uHTS (AID 1654)
[5] = molecular target: T3, Dual specificity protein phosphatase 3; test: VHR1 phosphatase inhibitors, biochemical (AID 1878)
HEK293 [6] = test: cells; conditions: Homo sapiens
[7] = cytotoxicity in MIN6 insulinoma cells, dose response, cytotoxicity control, cell-based, mouse insulinoma (AID 2122); format: functional;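 further: confirmatory high-throughput counterscreen run to flag cytotoxic compounds; mouse MIN-6 beta cells carrying an insulin promoter eGFP reporter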
[8] = molecular target: T4, Rac GTPase-activating protein 1 (Homo sapiens, UniProt Q9H0H5); test: MgcRacGAP GTPase-activating activity inhibitors, confirmation, biochemical, ADP Hunter fluorescence, primary and confirmatory (AID 624330); format: functional
T4 sequence (Q9H0H5 whole entry): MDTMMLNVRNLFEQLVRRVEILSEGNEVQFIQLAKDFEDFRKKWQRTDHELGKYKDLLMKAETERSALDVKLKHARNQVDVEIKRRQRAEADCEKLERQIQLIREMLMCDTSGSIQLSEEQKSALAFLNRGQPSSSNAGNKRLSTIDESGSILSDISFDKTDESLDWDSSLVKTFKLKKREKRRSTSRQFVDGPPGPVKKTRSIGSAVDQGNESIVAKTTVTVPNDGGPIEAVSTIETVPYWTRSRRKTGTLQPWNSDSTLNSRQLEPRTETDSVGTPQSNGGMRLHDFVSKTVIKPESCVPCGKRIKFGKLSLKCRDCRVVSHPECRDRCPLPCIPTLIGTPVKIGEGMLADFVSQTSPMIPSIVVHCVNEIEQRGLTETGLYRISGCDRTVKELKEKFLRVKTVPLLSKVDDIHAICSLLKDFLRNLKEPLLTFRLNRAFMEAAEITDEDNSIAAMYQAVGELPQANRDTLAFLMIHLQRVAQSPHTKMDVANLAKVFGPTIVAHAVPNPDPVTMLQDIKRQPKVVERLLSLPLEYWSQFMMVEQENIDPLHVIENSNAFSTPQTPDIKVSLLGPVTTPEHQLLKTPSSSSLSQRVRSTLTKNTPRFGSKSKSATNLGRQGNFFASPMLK

HEK293 [9] = test: cells; conditions: Homo sapiens; remark: listed apart in the source
[10] = insulin promoter down-regulators in MIN6 cells, imaging, high-content screening, mouse beta cells (AID 1628); format: functional
[11] = molecular target: T5, Lysine-specific demethylase 4C (Homo sapiens, UniProt Q9H3R0); test: GASC-1 (JMJD2C) histone demethylase inhibitors, dose response, biochemical, DELFIA europium, cherry-picked samples (AID 488835); format: functional
T5 sequence (Q9H3R0 whole entry): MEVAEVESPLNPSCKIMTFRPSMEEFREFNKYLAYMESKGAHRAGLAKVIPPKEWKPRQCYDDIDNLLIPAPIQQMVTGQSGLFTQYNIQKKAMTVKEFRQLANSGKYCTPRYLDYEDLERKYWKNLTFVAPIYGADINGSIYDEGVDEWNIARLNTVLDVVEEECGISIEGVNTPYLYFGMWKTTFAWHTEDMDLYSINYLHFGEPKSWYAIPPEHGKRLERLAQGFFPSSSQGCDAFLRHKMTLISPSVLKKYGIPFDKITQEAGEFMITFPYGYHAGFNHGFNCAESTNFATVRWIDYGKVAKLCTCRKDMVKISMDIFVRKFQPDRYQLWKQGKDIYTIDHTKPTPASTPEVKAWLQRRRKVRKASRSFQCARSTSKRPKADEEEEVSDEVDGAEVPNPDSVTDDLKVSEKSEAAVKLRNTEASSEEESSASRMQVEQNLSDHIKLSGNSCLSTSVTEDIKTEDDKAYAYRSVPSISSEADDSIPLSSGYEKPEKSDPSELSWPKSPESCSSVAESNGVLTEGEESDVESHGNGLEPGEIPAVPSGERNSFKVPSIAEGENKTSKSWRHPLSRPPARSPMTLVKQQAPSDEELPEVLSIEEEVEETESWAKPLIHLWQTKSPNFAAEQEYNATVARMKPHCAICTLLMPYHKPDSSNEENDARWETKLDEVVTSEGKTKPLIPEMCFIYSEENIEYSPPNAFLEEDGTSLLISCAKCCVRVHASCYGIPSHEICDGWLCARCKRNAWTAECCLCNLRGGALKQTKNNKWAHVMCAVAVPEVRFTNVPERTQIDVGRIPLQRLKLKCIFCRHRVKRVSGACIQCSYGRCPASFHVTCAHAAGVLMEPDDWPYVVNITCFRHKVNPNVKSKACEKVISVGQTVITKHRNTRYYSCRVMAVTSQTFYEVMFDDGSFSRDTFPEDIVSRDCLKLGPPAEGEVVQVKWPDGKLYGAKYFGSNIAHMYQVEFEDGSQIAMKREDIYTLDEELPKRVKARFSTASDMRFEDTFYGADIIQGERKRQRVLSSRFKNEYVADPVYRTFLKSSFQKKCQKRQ

Fatty acid synthase [12] = molecular target: T6, Fatty acid synthase (Homo sapiens, UniProt P49327); test: FAS thioesterase domain inhibitors, dose response, biochemical, kinetic fluorescence intensity (AID 624326); format: functional;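 further: rate of fluorescence rise from hydrolysis of a fluorogenic O-methyl fluorescein ester substrate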
[13] = molecular target: Lysine-specific demethylase 4A (Homo sapiens, UniProt O75164); test: JMJD2A histone demethylase inhibitors, dose response, selectivity assay for GASC-1 inhibitor project, biochemical, DELFIA europium, cherry-picked samples (AID 488840)
Fatty acid synthase [14] = molecular target: T6, Fatty acid synthase; test: FAS thioesterase domain inhibitors, dose response, biochemical, endpoint fluorescence intensity, uHTS hits (AID 624327); format: functional;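 further: fluorescence from hydrolysis of an O-methyl fluorescein acyl ester substrate by the enzyme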
A-375 = test: MITF: Counter assay: A375 proliferation Measured in Cell-Based System Using Plate Reader - 2084-03_Inhibitor_Dose_DryPowder_Activity. [Related pubchem assays (depositor defined):AID488944]; format: functional; conditions: Homo sapiens
Genome polyprotein = Genome polyprotein (dengue virus type 2, UniProt P29990); test: Dengue-2 NS5 methyltransferase inhibitors, primary screen, biochemical, confirmation dose response (AID 588689); format: functional
Vero = Vero cell cytotoxicity, cytotoxicity control for flavivirus capping enzyme inhibitors (AID 588742); format: functional; conditions: Chlorocebus sabaeus
Large T antigen = Large T antigen (Simian virus 40, UniProt P03070); format: functional, Betapolyomavirus macacae;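 further: Confirmatory-stage PubChem screen for compounds that inhibit SV40 T antigen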
[15] = molecular target: Heat shock protein HSP 90-alpha (Homo sapiens, UniProt P07900); format: functional, organism-based
[16] = molecular target: T7, Microphthalmia-associated transcription factor (Homo sapiens, UniProt O75030); test: TRPM1 promoter luciferase signal decrease, dose response, MITF inhibitor project, cell-based, SK-MEL-5, cherry-picked, set 3 (AID 493073); format: functional
T7 sequence (O75030 whole entry): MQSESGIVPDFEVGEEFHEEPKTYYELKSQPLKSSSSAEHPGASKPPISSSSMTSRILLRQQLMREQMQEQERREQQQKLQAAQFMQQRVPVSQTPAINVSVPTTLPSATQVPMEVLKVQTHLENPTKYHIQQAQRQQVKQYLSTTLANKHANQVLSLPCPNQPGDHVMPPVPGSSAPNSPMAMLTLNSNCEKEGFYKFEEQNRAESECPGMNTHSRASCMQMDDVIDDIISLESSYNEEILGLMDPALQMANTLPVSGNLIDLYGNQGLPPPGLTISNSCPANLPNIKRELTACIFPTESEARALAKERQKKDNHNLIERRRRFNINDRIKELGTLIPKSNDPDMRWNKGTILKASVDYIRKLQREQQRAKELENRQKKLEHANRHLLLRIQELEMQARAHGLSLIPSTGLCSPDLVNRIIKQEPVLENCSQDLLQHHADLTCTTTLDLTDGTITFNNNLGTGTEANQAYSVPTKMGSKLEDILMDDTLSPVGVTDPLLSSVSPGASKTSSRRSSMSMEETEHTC

[17] = molecular target: T8, Serine/threonine-protein phosphatase (Candida dubliniensis (strain CD36 / CBS 7987 / NCPF 3949 / NRRLY-17841) (Yeast), UniProt B9W6M3); test: Fluorescence Cell-Based Secondary Assay to Identify Inhibitors of Calcineurin. [Related pubchem assays (depositor defined):AID1979, AID2007]; format: functional
T8 sequence (B9W6M3 whole entry): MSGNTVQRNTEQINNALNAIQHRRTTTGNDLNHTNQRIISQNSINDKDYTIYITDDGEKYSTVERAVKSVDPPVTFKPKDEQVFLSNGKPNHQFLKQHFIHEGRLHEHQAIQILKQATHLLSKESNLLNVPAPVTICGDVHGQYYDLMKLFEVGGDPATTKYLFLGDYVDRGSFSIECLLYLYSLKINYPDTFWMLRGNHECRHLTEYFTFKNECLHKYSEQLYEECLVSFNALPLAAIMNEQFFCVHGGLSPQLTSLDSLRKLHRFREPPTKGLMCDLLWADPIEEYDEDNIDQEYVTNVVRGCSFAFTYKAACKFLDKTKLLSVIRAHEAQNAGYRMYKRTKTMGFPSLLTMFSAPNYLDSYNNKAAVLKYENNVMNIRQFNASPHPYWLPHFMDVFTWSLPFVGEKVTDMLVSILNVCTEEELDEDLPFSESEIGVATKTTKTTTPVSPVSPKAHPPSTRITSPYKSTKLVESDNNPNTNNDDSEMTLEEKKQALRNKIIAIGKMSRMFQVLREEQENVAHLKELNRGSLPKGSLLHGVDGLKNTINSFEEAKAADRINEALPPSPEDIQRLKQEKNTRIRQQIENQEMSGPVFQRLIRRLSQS

T1 sequence (Q00975 whole entry): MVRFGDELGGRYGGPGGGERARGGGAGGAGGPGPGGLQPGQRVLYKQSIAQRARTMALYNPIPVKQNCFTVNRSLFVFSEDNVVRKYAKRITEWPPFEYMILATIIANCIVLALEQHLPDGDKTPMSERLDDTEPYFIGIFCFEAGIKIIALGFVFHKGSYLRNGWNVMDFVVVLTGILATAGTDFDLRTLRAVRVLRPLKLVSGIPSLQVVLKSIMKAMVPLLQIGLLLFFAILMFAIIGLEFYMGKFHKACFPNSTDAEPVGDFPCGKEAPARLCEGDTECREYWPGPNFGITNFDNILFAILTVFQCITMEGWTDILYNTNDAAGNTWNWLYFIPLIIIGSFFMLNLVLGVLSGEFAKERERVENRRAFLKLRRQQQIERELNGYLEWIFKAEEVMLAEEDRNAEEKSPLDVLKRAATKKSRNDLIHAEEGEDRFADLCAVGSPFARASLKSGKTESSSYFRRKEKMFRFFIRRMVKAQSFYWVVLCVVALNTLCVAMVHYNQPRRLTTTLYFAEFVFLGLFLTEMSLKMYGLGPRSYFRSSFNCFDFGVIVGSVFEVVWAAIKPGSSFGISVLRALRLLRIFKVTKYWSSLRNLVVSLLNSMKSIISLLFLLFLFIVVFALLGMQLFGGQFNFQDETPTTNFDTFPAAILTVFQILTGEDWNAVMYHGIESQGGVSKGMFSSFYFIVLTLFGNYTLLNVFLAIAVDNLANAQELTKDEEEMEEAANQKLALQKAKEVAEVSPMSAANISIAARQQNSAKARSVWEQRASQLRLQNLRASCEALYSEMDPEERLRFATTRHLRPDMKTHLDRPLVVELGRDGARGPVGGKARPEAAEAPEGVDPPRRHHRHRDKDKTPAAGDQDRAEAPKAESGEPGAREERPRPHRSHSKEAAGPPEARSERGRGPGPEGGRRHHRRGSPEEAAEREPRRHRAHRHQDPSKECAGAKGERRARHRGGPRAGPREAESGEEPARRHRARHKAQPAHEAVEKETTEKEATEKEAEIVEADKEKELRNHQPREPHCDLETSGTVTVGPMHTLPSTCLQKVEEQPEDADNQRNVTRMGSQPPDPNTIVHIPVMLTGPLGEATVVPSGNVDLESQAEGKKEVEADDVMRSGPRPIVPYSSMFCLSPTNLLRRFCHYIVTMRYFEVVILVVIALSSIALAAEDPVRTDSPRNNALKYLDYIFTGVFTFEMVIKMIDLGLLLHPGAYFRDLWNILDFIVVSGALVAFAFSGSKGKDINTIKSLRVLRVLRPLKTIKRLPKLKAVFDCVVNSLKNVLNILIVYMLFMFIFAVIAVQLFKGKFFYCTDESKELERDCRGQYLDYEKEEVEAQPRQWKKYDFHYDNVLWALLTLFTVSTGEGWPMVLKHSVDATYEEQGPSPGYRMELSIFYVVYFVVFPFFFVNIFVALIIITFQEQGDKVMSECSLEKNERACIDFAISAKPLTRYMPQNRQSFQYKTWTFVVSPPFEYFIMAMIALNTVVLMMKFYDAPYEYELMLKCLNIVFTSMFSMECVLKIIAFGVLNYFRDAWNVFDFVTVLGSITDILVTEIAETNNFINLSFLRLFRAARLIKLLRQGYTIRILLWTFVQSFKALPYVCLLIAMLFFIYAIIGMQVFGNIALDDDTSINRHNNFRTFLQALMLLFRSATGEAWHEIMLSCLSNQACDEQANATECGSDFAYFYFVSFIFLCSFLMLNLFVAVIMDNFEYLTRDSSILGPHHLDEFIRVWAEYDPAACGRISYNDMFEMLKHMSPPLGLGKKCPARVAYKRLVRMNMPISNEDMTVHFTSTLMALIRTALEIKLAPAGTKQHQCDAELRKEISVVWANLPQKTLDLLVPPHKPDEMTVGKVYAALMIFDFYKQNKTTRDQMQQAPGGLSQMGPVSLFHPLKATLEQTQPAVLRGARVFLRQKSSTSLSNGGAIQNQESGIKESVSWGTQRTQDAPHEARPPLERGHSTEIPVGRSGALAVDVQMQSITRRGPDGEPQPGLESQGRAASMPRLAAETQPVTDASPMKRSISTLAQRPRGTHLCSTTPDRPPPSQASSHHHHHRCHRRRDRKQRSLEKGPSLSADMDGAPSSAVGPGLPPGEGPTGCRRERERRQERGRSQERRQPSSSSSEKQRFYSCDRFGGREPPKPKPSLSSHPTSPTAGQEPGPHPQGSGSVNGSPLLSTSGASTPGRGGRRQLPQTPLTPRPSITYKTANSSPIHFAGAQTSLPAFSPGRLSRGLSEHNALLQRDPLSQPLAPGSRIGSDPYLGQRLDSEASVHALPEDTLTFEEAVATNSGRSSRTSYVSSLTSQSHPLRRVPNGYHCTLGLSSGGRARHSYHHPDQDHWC
T1 sequence (Q02410 whole entry): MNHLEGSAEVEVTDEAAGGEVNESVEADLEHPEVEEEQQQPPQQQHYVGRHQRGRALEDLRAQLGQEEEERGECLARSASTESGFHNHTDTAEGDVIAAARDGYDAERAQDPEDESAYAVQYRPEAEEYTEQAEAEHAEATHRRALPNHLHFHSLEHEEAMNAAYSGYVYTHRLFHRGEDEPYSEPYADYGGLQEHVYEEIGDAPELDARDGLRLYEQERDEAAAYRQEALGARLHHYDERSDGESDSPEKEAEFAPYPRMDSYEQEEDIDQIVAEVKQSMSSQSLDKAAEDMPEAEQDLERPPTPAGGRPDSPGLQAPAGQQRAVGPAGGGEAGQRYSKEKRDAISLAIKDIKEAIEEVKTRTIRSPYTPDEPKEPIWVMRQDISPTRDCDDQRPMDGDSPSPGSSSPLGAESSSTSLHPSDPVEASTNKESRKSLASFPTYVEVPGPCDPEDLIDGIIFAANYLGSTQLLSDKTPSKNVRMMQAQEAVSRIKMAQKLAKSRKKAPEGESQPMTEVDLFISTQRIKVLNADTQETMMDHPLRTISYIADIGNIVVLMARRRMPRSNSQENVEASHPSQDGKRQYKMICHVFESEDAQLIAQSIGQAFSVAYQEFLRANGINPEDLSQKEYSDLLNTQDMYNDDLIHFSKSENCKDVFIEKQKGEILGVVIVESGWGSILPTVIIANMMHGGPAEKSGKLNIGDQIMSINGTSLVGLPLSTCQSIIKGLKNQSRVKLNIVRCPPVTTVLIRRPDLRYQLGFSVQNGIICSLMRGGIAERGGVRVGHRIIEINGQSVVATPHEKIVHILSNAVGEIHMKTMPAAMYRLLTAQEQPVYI
T3 sequence (P51452 whole entry): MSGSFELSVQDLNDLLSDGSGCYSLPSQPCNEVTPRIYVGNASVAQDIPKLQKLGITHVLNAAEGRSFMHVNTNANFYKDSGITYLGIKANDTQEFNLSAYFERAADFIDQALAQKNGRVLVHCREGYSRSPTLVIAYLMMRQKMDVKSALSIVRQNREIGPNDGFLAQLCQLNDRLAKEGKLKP
Sequence of Lysine-specific demethylase 4A (O75164 whole entry, the tested form may be a part): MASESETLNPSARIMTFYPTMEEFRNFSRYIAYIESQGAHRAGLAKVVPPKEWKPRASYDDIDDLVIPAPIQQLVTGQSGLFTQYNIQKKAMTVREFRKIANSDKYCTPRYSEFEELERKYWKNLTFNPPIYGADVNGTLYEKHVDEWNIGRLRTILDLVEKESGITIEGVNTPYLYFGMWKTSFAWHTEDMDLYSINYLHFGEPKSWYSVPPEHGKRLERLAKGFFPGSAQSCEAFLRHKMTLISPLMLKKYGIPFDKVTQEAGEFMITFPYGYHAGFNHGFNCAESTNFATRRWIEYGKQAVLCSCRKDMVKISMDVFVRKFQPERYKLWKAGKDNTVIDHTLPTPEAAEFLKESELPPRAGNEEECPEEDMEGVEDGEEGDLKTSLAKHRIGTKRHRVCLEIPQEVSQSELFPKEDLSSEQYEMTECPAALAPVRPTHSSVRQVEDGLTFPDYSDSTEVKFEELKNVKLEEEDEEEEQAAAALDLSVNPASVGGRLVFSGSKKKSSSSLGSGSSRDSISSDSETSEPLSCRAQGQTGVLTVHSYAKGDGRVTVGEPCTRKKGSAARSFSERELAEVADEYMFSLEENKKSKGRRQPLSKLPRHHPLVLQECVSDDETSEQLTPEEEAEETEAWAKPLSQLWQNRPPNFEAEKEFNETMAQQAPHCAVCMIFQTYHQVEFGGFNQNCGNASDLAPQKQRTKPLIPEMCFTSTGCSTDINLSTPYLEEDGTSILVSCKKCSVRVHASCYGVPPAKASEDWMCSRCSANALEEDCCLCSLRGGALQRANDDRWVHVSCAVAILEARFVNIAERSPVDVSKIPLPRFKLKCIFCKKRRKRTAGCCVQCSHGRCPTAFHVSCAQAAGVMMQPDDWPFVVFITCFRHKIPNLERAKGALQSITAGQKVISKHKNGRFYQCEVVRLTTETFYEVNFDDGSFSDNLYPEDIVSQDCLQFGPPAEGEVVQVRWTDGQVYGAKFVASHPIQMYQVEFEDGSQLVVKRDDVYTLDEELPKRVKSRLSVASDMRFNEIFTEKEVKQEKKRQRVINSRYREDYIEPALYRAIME

## CCOC(=O)C1=C(C)N=c2s/c(=C/c3ccc(OCC(=O)O)cc3)c(=O)n2C1c1ccc(SC)cc1 (stereo unspecified)
[1]
  IC50: > 50 µM (inactive)
[2]
  IC50: 72.6 µM (active)
[3]
  IC50: 10.4 µM (active)
[4]
  IC50: 9.18 µM (active)
[5]
  IC50: 6.94 µM (active)

## Nc1ccccc1Nc1cccc(C(F)(F)F)c1
HEK293 [6]
  EC50: > 59.6 µM (inactive)
[7]
  IC50: 5.09 µM (active)
[8]
  IC50: 89 µM (active)
HEK293 [9]
  EC50: > 59.6 µM (inactive)
[10]
  IC50: 4.45 µM (active)

## O=C(N/N=C/c1cc([N+](=O)[O-])cc([N+](=O)[O-])c1O)C(O)(c1ccccc1)c1ccccc1
[11]
  AC50: 2 µM (active)
Fatty acid synthase [12]
  IC50: 8.77 µM (active)
[13]
  AC50: 3.47 µM (active)
Fatty acid synthase [14]
  IC50: 16.1 µM (active)

## O=C(O)/C=C/C(=O)c1ccc2c(c1)CCc1ccccc1-2
A-375
  AC50: 35 µM (active)
Genome polyprotein
  IC50: 22.9 µM (active)
Vero
  CC50: 17.2 µM (active)
Large T antigen
  IC50: 34.5 µM (active)
[15]
  AC50: 16.6 µM (active)
[16]
  AC50: 15 µM (active)

## CCOC(=O)N1C(=O)C2(CCCCC2)N(c2ccc(C)cc2)C1=S
[17]
  EC50: > 285 µM (inactive)
